Laboratory results reported in ChEMBL document CHEMBL1201862, “PubChem BioAssay data set” (2004).
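Compound exposure: 48 hours, 5 concentrations, 96-well plates. GI50 marks 50% less growth.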 The source made the active and inactive calls. Rule as the data show it: active = GI50 up to about 1.1 µM and inactive = higher.

What was measured:
Experiment in all cases: NCI anticancer screen, dose series, 48 h
ACHN = tested on: ACHN
SF-539 = tested on: SF-539
COLO 205 = tested on: COLO 205
DU-145 = tested on: DU-145
LOX IMVI = tested on: LOX IMVI
NCI/ADR-RES = tested on: NCI/ADR-RES
SW-620 = tested on: SW-620
Malme-3M = tested on: Malme-3M
TK-10 = tested on: TK-10
OVCAR-8 = tested on: OVCAR-8
SF-295 = tested on: SF-295
NCI-H23 = tested on: NCI-H23
IGROV-1 = tested on: IGROV-1
MOLT-4 = tested on: MOLT-4
NCI-H460 = tested on: NCI-H460
HOP-92 = tested on: HOP-92
UACC-62 = tested on: UACC-62
UACC-257 = tested on: UACC-257
A549 = tested on: A549
SK-MEL-28 = tested on: SK-MEL-28

SMILES | GI50 (ACHN) | GI50 (SF-539) | GI50 (COLO 205) | GI50 (DU-145) | GI50 (LOX IMVI) | GI50 (NCI/ADR-RES) | GI50 (SW-620) | GI50 (Malme-3M) | GI50 (TK-10) | GI50 (OVCAR-8) | GI50 (SF-295) | GI50 (NCI-H23) | GI50 (IGROV-1) | GI50 (MOLT-4) | GI50 (NCI-H460) | GI50 (HOP-92) | GI50 (UACC-62) | GI50 (UACC-257) | GI50 (A549) | GI50 (SK-MEL-28)
COc1cccc(-c2cc(O)c3cc(OC)ccc3n2)c1 | 1.74 µM (inactive) | 0.188 µM (active) | 0.201 µM (active) | 0.429 µM (active) | 0.439 µM (active) | 0.173 µM (active) | 0.281 µM (active) | 0.0553 µM (active) | 0.5 µM (active) | 0.344 µM (active) | 0.18 µM (active) | 0.32 µM (active) | 0.483 µM (active) | 0.311 µM (active) | 0.365 µM (active) | 0.488 µM (active) | 0.182 µM (active) | 0.865 µM (active) | 0.367 µM (active) | –
CO[C@H]1C[C@@H]2CC[C@@H](C)[C@@](O)(O2)C(=O)C(=O)N2CCCC[C@H]2C(=O)O[C@H]([C@H](C)C[C@@H]2CC[C@@H](OC(=O)C(C)(CO)CO)[C@H](OC)C2)CC(=O)[C@H](C)/C=C(\C)[C@@H](O)[C@@H](OC)C(=O)[C@H](C)C[C@H](C)/C=C/C=C/C=C/1C [TEMSIROLIMUS] | 0.00723 µM (active) | 0.00873 µM (active) | 3.98 µM (inactive) | 0.0975 µM (active) | 0.00327 µM (active) | 0.0881 µM (active) | 4.23 µM (inactive) | 0.000199 µM (active) | 0.00262 µM (active) | 0.00388 µM (active) | 0.000557 µM (active) | 0.00501 µM (active) | – | 0.00176 µM (active) | 0.0678 µM (active) | 0.00254 µM (active) | 0.0141 µM (active) | 1.99 µM (inactive) | 0.0301 µM (active) | 0.0298 µM (active)
Nc1nc(Nc2ccccc2)c2[nH]cnc2n1 | 41.9 µM (inactive) | > 100 µM (inactive) | 89.9 µM (inactive) | 77.3 µM (inactive) | 77.6 µM (inactive) | > 100 µM (inactive) | > 100 µM (inactive) | 30.6 µM (inactive) | 46.9 µM (inactive) | > 100 µM (inactive) | > 100 µM (inactive) | > 100 µM (inactive) | 32 µM (inactive) | 38.9 µM (inactive) | – | 32.2 µM (inactive) | 33.3 µM (inactive) | > 100 µM (inactive) | > 100 µM (inactive) | > 100 µM (inactive)
CCCCCCCCCCC(O)C1CCC(C2CCC(C(O)CCCCC(O)CCCCCC(O)CC3=CC(C)OC3=O)O2)O1 (stereo not drawn) | > 25 µM (inactive) | > 25 µM (inactive) | > 25 µM (inactive) | 9.91 µM (inactive) | 2.69 µM (inactive) | 2.46 µM (inactive) | > 25 µM (inactive) | > 25 µM (inactive) | > 25 µM (inactive) | 4.51 µM (inactive) | 19.9 µM (inactive) | – | 3.72 µM (inactive) | 2.97 µM (inactive) | 6.93 µM (inactive) | > 25 µM (inactive) | 1.2 µM (inactive) | 2.12 µM (inactive) | > 20.9 µM (inactive) | > 25 µM (inactive)
CSc1ccn(C2CC(F)C(CO)O2)c(=O)n1 (stereo not drawn) | > 100 µM (inactive) | > 100 µM (inactive) | > 100 µM (inactive) | > 100 µM (inactive) | > 100 µM (inactive) | > 100 µM (inactive) | > 100 µM (inactive) | > 100 µM (inactive) | > 100 µM (inactive) | > 100 µM (inactive) | > 100 µM (inactive) | > 100 µM (inactive) | > 100 µM (inactive) | > 100 µM (inactive) | > 100 µM (inactive) | > 100 µM (inactive) | > 100 µM (inactive) | > 100 µM (inactive) | > 100 µM (inactive) | –
CC1=NN2C=Nc3c(c(-c4ccc(Cl)cc4)cn3-c3ccc(C)cc3)C2N1 (stereo not drawn) | > 100 µM (inactive) | 87.1 µM (inactive) | > 100 µM (inactive) | > 100 µM (inactive) | > 100 µM (inactive) | 55.8 µM (inactive) | > 100 µM (inactive) | > 100 µM (inactive) | 42.8 µM (inactive) | 29.9 µM (inactive) | 39.3 µM (inactive) | > 100 µM (inactive) | 76.6 µM (inactive) | – | 56.6 µM (inactive) | 17.1 µM (inactive) | 61 µM (inactive) | > 100 µM (inactive) | > 100 µM (inactive) | > 100 µM (inactive)
CCOC(=O)c1cc(I)c(-c2cc(C)no2)n1C | 48.3 µM (inactive) | > 100 µM (inactive) | 42.4 µM (inactive) | 89.9 µM (inactive) | 37.3 µM (inactive) | 36.2 µM (inactive) | 60.7 µM (inactive) | 28.1 µM (inactive) | > 100 µM (inactive) | 59 µM (inactive) | 55.7 µM (inactive) | 44.1 µM (inactive) | – | 21.2 µM (inactive) | 76.7 µM (inactive) | 36.4 µM (inactive) | 59 µM (inactive) | 71.6 µM (inactive) | 61.7 µM (inactive) | > 100 µM (inactive)
